Measured values reported in US7064124B2, “NF-κB inhibitor containing substituted benzoic acid derivative as active ingredient” (Daiichi Suntory Pharma Co., Ltd., priority 2001, dated 2006).

Work on `COC1=C(OC)C(=O)C(Cc2ccc(O)c(C(=O)Nc3ccc(OC)nc3OC)c2)=C(C)C1=O` [Example 183, N-(2,6-Dimethoxypyridin-3-yl)-5-(5,6-dimethoxy-3-methyl-1,4-benzoquinon-2-yl)methyl-2-hydroxybenzamide] yielded a melting point of 119 to 121.5 °C. In the case of `COC1=C(OC)C(=O)C(Cc2ccc(C(=O)Nc3cccnc3Cl)c(OC(C)=O)c2)=C(C)C1=O` [Example 132, N-(2-Chloropyridin-3-yl)-4-(5,6-dimethoxy-3-methyl-1,4-benzoquinon-2-yl)methyl-2-acetoxybenzamide], the melting point was 113.5 to 115.1 °C. With `CC(=O)Oc1ccc(CC2=C(C)C(=O)C(C)=C(C)C2=O)cc1C(=O)O` [Example 233, 5-(3,5,6-Trimethyl-1,4-benzoquinon-2-yl)methyl-2-acetoxybenzoic acid] the melting point was 157 to 159.5 °C. `COC1=C(OC)C(=O)C(Cc2ccc(C(=O)Nc3ccc(OC)nc3)c(OC(C)=O)c2)=C(C)C1=O` [Example 134, N-(6-Methoxypyridin-3-yl)-4-(5,6-dimethoxy-3-methyl-1,4-benzoquinon-2-yl)methyl-2-acetoxybenzamide] gave a melting point of 124.7 to 125.5 °C. Molecule `COC1=C(OC)C(=O)C(Cc2cccc(C(=O)Nc3ccc(S(=O)(=O)C(F)(F)F)cc3)c2OC(C)=O)=C(C)C1=O` [Example 175, N-[3-(5,6-Dimethoxy-3-methyl-1,4-benzoquinon-2-yl)methyl-2-acetoxybenzoyl]-4-(trifluoromethylsulfonyl)aniline] has a melting point of 87 to 89 °C. `COC1=C(OC)C(=O)C(Cc2ccc(OC(C)=O)c(C(=O)NC3CCCCC3)c2)=C(C)C1=O` [Example 161, N-Cyclohexyl-5-(5,6-dimethoxy-3-methyl-1,4-benzoquinon-2-yl)methyl-2-acetoxybenzamide] showed a melting point of 137.5 to 140 °C. For `COC1=C(OC)C(=O)C(Cc2ccc(O)c(C(=O)Nc3cccc(C(F)(F)F)c3)c2)=C(C)C1=O` [Example 152, N-[5-(5,6-Dimethoxy-3-methyl-1,4-benzoquinon-2-yl)methyl-2-hydroxybenzoyl]-3-trifluoromethylaniline], the melting point was 127.5 to 130 °C. For `COC1=C(OC)C(=O)C(Cc2ccc(O)c(C(=O)Nc3ccccc3[N+](=O)[O-])c2)=C(C)C1=O` [Example 154, N-[5-(5,6-Dimethoxy-3-methyl-1,4-benzoquinon-2-yl)methyl-2-hydroxybenzoyl]-2-nitroaniline], the melting point was 155 to 156 °C. `COC1=C(OC)C(=O)C(Cc2ccc(OCc3cccnc3)c(C(=O)Nc3ccc(C(F)(F)F)cc3)c2)=C(C)C1=O` [Example 172, N-[5-(5,6-Dimethoxy-3-methyl-1,4-benzoquinon-2-yl)methyl-2-(3-pyridylmethyloxy)benzoyl]-4-trifluoromethylaniline] showed a melting point of 173 to 176 °C. For `COC1=C(OC)C(=O)C(Cc2ccc(C(=O)Nc3cccnc3)c(OC(C)=O)c2)=C(C)C1=O` [Example 138, N-(Pyridin-3-yl)-4-(5,6-dimethoxy-3-methyl-1,4-benzoquinon-2-yl)methyl-2-acetoxybenzamide], the melting point was 158.2 to 160 °C. Molecule `COC1=C(OC)C(=O)C(Cc2ccc(O)c(C(=O)Nc3ccccn3)c2)=C(C)C1=O` [Example 156, N-(Pyridin-2-yl)-5-(5,6-dimethoxy-3-methyl-1,4-benzoquinon-2-yl)methyl-2-hydroxybenzamide] has a melting point of 180 to 183 °C. In the case of `COC1=C(OC)C(=O)C(Cc2ccc(OC(C)=O)c(C(=O)Nc3cccc(C(F)(F)F)c3)c2)=C(C)C1=O` [Example 151, N-[5-(5,6-Dimethoxy-3-methyl-1,4-benzoquinon-2-yl)methyl-2-acetoxybenzoyl]-3-trifluoromethylaniline], the melting point was 98 to 100 °C. Molecule `COC1=C(OC)C(=O)C(Cc2ccc(OC(C)=O)c(C(=O)Nc3cccnc3OC)c2)=C(C)C1=O` [Example 215, N-(2-Methoxypyridin-3-yl)-5-(5,6-dimethoxy-3-methyl-1,4-benzoquinon-2-yl)methyl-2-acetoxybenzamide] has a melting point of 111 to 112 °C.
